Here are results for 10 compounds from publication PMC12155096 (International Journal of Molecular Sciences, 2025).

For orientation: IC50 means the concentration needed to halve the response being measured. Usually AC50 stands for the midpoint of the concentration-response curve, whichever way the signal moves. A lower AC50 goes with greater potency.

Where two headings read alike, the source gives them in different places.

The target in data set [1] is Photinus pyralis (firefly) luciferase (Photinus pyralis, UniProt P08659). Put plainly: biochemical. The class given is biochemical.
Photinus pyralis (firefly) luciferase, sequence (P08659 whole entry): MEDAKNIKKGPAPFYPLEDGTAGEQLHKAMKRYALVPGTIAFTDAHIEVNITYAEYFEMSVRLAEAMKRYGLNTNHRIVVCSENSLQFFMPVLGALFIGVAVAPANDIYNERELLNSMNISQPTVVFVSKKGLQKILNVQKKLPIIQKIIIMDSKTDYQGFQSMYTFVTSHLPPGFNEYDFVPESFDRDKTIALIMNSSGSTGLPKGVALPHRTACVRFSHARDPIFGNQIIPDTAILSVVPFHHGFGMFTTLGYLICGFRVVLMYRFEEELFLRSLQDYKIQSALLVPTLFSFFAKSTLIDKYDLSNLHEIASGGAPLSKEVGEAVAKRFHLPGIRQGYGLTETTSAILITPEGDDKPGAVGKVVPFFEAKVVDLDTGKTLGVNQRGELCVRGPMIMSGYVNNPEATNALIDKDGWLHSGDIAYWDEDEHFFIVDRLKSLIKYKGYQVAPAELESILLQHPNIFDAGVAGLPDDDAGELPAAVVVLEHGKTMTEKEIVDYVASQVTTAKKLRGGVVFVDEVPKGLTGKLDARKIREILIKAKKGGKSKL
Data set [2] deals with T1, human CYP1A2 (Homo sapiens, UniProt P05177).
T1 sequence (P05177 1-516): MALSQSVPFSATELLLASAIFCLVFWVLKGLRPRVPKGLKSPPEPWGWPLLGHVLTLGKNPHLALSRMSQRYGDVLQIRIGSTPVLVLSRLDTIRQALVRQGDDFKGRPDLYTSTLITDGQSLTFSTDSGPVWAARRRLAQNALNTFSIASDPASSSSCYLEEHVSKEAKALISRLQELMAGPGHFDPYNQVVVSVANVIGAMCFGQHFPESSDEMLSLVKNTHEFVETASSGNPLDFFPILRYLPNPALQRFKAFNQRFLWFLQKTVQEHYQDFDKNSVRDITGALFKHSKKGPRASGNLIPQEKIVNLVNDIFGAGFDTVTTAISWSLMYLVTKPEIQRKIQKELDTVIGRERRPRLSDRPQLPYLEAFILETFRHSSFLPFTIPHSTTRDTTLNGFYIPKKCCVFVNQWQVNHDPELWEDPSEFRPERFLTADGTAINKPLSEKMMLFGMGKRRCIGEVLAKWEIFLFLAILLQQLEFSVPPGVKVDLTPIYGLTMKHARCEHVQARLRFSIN
As to conditions: human; call rule not given here.

Data set [3] has as its target T2, human CYP2C9 (Homo sapiens, UniProt P11712). As to conditions: human.
For data set [4], the target named is T3, human CYP2C19 (Homo sapiens, UniProt P33261). The following applies: human.
T3 sequence (P33261 whole entry): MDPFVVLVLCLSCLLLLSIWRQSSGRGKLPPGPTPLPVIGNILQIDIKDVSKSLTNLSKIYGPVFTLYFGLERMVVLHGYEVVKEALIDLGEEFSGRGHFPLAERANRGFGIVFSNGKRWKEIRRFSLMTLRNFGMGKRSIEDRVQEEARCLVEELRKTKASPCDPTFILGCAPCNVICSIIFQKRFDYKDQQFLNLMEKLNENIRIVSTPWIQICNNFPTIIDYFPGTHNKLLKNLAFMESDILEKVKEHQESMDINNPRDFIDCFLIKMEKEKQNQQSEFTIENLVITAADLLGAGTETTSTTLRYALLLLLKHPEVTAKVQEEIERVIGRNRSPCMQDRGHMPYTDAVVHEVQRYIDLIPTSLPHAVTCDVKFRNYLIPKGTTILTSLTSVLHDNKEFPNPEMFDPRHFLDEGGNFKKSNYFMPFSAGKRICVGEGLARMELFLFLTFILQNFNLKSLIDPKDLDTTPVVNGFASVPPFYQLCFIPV
The target in data set [5] is T4, human CYP2D6 (Homo sapiens, UniProt P10635). As to conditions: human.
T4 sequence (P10635 whole entry): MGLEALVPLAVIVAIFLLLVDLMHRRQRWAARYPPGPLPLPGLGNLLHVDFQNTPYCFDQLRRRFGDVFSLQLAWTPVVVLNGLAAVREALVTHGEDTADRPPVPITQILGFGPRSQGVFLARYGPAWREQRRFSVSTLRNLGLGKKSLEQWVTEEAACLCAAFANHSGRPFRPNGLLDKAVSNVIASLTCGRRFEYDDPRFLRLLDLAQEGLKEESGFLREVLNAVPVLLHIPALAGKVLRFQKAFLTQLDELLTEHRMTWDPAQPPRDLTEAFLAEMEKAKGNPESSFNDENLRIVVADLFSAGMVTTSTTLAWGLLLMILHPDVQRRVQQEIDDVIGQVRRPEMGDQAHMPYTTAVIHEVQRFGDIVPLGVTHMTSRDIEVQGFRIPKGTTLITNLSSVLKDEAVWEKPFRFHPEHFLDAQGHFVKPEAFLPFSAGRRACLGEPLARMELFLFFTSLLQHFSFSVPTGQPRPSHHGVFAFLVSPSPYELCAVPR
The target of data set [6] is T5, CYP3A4 (Homo sapiens, UniProt P08684).
T5 sequence (P08684 whole entry): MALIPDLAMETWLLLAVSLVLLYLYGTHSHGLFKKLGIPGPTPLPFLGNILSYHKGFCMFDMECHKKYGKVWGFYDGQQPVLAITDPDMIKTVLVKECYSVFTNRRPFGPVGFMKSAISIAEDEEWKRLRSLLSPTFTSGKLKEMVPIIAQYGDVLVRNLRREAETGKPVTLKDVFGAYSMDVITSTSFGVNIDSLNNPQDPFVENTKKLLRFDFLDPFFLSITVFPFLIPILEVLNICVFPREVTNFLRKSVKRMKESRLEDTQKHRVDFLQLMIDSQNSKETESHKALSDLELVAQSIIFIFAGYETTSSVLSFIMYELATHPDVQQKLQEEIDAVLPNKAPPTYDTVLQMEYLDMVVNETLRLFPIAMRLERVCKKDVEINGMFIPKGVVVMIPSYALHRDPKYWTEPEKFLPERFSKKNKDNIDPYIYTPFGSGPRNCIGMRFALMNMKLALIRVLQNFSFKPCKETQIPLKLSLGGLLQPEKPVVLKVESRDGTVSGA
Data set [7] has as its target T1, human CYP1A2. Put plainly: biochemical. As to conditions: for IC50: CYP1A2 IC50 (half-maximal inhibitory concentration).
The target in data set [8] is T2, human CYP2C9. The data set is described as follows: biochemical.
The target in data set [9] is T3, human CYP2C19. Put plainly: biochemical. The following applies: for IC50: CYP2C19 IC50 (half-maximal inhibitory concentration).
The target of data set [10] is T4, human CYP2D6. The data set is described as follows: biochemical.
Data set [11] concerns the target T5, CYP3A4. Put plainly: biochemical. The following applies: for IC50: CYP3A4 IC50 (half-maximal inhibitory concentration).
[12] abbreviates: CYP2C9 IC50 (half-maximal inhibitory concentration).
Setting [13] is: CYP2D6 IC50 (half-maximal inhibitory concentration).

T2 sequence (P11712 whole entry): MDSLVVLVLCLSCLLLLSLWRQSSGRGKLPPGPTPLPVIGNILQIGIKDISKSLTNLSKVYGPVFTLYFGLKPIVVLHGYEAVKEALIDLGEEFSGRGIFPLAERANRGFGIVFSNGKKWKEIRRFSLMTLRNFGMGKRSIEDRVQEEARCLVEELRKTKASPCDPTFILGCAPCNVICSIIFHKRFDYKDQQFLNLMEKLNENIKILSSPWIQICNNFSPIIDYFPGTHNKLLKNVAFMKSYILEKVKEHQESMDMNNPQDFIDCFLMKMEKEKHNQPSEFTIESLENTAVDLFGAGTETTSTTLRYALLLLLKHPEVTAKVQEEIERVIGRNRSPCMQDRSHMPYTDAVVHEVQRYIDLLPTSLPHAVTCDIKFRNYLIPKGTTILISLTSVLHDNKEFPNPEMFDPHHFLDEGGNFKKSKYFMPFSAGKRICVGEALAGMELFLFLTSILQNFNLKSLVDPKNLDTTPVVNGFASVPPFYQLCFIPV

Take `CCCCC(C#N)(Cn1cncn1)c1ccc(Cl)cc1` (stereo not shown) [Myclobutanil]: in data set [1], the “Luciferase IC50 (half-maximal inhibitory concentration)” value is recorded as “Inactive”. Moreover, the “CYP1A2 Efficacy (in parenthesis)” value in data set [2] was 33.28 ± 11.5 (-34 ± 3) %. Further, in data set [3], the “CYP2C9 Efficacy (in parenthesis)” value is listed as 25.18 ± 0 (-109 ± 4) %. For the same compound, the “CYP2C19 Efficacy (in parenthesis)” value in data set [4] is 0.66 ± 0.12 (-168 ± 41) %. Further, the “CYP2D6 Efficacy (in parenthesis)” value in [5] is listed as 49.32 ± 12.32 (-38 ± 7) %. In data set [6], the “CYP3A4 Efficacy (in parenthesis)” value is given as 0.17 ± 0.05 (-75 ± 2) %. Moreover, the half-inhibitory concentration (IC50) came out at 33.3 µM in data set [7]; 25.2 µM in data set [8] (setting [12]); 0.66 µM in data set [9]; 49.3 µM in data set [10] (setting [13]); 0.17 µM in data set [11].
With `OC(c1ccc(F)cc1)(c1cncnc1)c1ccccc1Cl` (stereo not shown) [Nuarimol], the “Luciferase IC50 (half-maximal inhibitory concentration)” value in [1] is “Inactive”. For the same compound, in data set [2], the “CYP1A2 Efficacy (in parenthesis)” value is listed as 49.42 ± 19.58 (-46 ± 6) %. Moreover, in data set [3], the “CYP2C9 Efficacy (in parenthesis)” value is recorded as 23.57 ± 4.24 (-118 ± 8) %. In data set [4], the “CYP2C19 Efficacy (in parenthesis)” value was 2.7 ± 1.21 (-141 ± 5) %. For the same compound, the “CYP2D6 Efficacy (in parenthesis)” value in data set [5] is 35.73 ± 4.11 (-53 ± 5) %. Further, the “CYP3A4 Efficacy (in parenthesis)” value in data set [6] is recorded as 0.31 ± 0.08 (-68 ± 6) %. In addition, the IC50 in [7] was 49.4 µM; in data set [8] (setting [12]), 23.6 µM; in [9], 2.7 µM; in [10] (setting [13]), 35.7 µM; in data set [11] it was 0.31 µM.
Take `CCOP(=S)(OCC)Oc1ccc([N+](=O)[O-])cc1` [Parathion]: the “Luciferase IC50 (half-maximal inhibitory concentration)” value in [1] is listed as “Inactive”. For the same compound, the “CYP1A2 Efficacy (in parenthesis)” value in data set [2] was 0.99 ± 0.17 (-96 ± 2) %. The “CYP2C9 Efficacy (in parenthesis)” value in [3] is given as 1.62 ± 0.19 (-99 ± 2) %. Besides, the “CYP2C19 Efficacy (in parenthesis)” value in data set [4] was 0.17 ± 0.04 (-144 ± 4) %. In addition, in [5], the “CYP2D6 Efficacy (in parenthesis)” value is 32.26 ± 3.71 (-69 ± 3) %. The “CYP3A4 Efficacy (in parenthesis)” value in data set [6] is reported as 3.18 ± 0.89 (-79 ± 1) %. The IC50 in [7] was found to be 0.99 µM; in data set [8], 1.62 µM; in data set [9], 0.17 µM; in data set [10], 32.3 µM; in data set [11], 3.18 µM.
With `C=CC(=O)OCC(CO)(COC(=O)C=C)COC(=O)C=C` [Pentaerythritol triacrylate], the “Luciferase IC50 (half-maximal inhibitory concentration)” value in data set [1] was “Inactive”. For the same compound, in [2], the “CYP1A2 Efficacy (in parenthesis)” value is given as 71.58 ± 8.23 (-54 ± 11) %. Further, the “CYP2C9 Efficacy (in parenthesis)” value in data set [3] is 13.25 ± 1.87 (-108 ± 2) %. The “CYP2C19 Efficacy (in parenthesis)” value in data set [4] was 22.64 ± 2.6 (-137 ± 14) %. The “CYP2D6 Efficacy (in parenthesis)” value in data set [5] is on record as 63.77 ± 20.97 (-79 ± 21) %. Also, the “CYP3A4 Efficacy (in parenthesis)” value in data set [6] is reported as 0.93 ± 0.39 (-89 ± 6) %. Besides, the half-maximal inhibitory concentration (IC50) in [7] stood at 71.6 µM; in data set [8] (setting [12]), 13.2 µM; in data set [9], 22.6 µM; in data set [10] (setting [13]), 63.8 µM; in data set [11], 0.93 µM.
In the case of `CCOP(=S)(OCC)SCn1c(=O)oc2cc(Cl)ccc21` [Phosalone], the IC50 in data set [1] stood at 49.6 µM; in data set [7], 2.98 µM; in data set [8], 1.21 µM; in data set [9], 0.13 µM; in data set [10], 15.9 µM; in data set [11], 0.3 µM. Besides, the “CYP1A2 Efficacy (in parenthesis)” value in data set [2] is on record as 2.98 ± 0.74 (-99 ± 6) %. In data set [3], the “CYP2C9 Efficacy (in parenthesis)” value is 1.21 ± 0.14 (-101 ± 6) %. In addition, the “CYP2C19 Efficacy (in parenthesis)” value in data set [4] was 0.13 ± 0.05 (-148 ± 13) %. Moreover, the “CYP2D6 Efficacy (in parenthesis)” value in [5] is recorded as 15.88 ± 2.02 (-103 ± 4) %. Also, the “CYP3A4 Efficacy (in parenthesis)” value in [6] is on record as 0.3 ± 0.07 (-85 ± 5) %.
Regarding `Clc1ccccc1-c1nc(-c2ccncc2)no1` [Pifexole], the half-maximal inhibitory concentration (IC50) in data set [1] was determined as 3.23 µM; in data set [7], 0.39 µM; in [8] (setting [12]), 6.98 µM; in data set [9] it was 0.74 µM; in data set [10] (setting [13]), 20.1 µM; in [11] it was 33.6 µM. Besides, the “CYP1A2 Efficacy (in parenthesis)” value in data set [2] is 0.39 ± 0.12 (-91 ± 4) %. Moreover, in data set [3], the “CYP2C9 Efficacy (in parenthesis)” value was 6.98 ± 3.95 (-79 ± 12) %. The “CYP2C19 Efficacy (in parenthesis)” value in [4] was 0.74 ± 0.41 (-105 ± 12) %. Also, in data set [5], the “CYP2D6 Efficacy (in parenthesis)” value is 20.06 ± 9.42 (-76 ± 17) %. Further, the “CYP3A4 Efficacy (in parenthesis)” value in data set [6] was 33.57 ± 4.62 (-77 ± 10) %.
Consider `CCNP(=S)(OC)O/C(C)=C/C(=O)OC(C)C` (stereo not shown) [Propetamphos], for which the “Luciferase IC50 (half-maximal inhibitory concentration)” value in [1] is reported as “Inactive”. The “CYP1A2 Efficacy (in parenthesis)” value in [2] is recorded as 2.25 ± 0.26 (-99 ± 4) %. Also, the “CYP2C9 Efficacy (in parenthesis)” value in [3] is 0.57 ± 0.11 (-102 ± 4) %. The “CYP2C19 Efficacy (in parenthesis)” value in data set [4] is reported as 0.08 ± 0.01 (-138 ± 6) %. The “CYP2D6 Efficacy (in parenthesis)” value in [5] is given as 28.38 ± 3.26 (-120 ± 4) %. Further, the “CYP3A4 Efficacy (in parenthesis)” value in [6] is on record as 1.05 ± 0.36 (-88 ± 2) %. Also, the concentration for half-maximal inhibition (IC50) in data set [7] is 2.25 µM; in data set [8], 0.57 µM; in data set [9], 0.08 µM; in data set [10], 28.4 µM; in data set [11] it was 1.05 µM.
On to `CCCC1COC(Cn2cncn2)(c2ccc(Cl)cc2Cl)O1` (stereo not shown) [Propiconazole], for which, in data set [1], the “Luciferase IC50 (half-maximal inhibitory concentration)” value was “Inactive”. Also, the “CYP1A2 Efficacy (in parenthesis)” value in data set [2] was 24.72 ± 6.17 (-104 ± 9) %. Further, in [3], the “CYP2C9 Efficacy (in parenthesis)” value was 2.18 ± 0.37 (-104 ± 6) %. In [4], the “CYP2C19 Efficacy (in parenthesis)” value is 0.52 ± 0.14 (-134 ± 10) %. For the same compound, the “CYP2D6 Efficacy (in parenthesis)” value in [5] was 37.02 ± 2.51 (-73 ± 5) %. The “CYP3A4 Efficacy (in parenthesis)” value in data set [6] is reported as 0.06 ± 0.02 (-71 ± 3) %. In addition, the IC50 in [7] worked out at 24.7 µM; in [8] (setting [12]), 2.18 µM; in data set [9] it was 0.52 µM; in data set [10] (setting [13]), 37 µM; in data set [11], 0.06 µM.
With `COC(=O)N(OC)c1ccccc1COc1ccn(-c2ccc(Cl)cc2)n1` [Pyraclostrobin], the IC50 was 56.4 µM in data set [1]; 0.99 µM in data set [7]; 5.35 µM in data set [8] (setting [12]); 0.57 µM in data set [9]; 32.6 µM in data set [10] (setting [13]). The “CYP1A2 Efficacy (in parenthesis)” value in data set [2] is on record as 0.99 ± 0.24 (-102 ± 3) %. The “CYP2C9 Efficacy (in parenthesis)” value in data set [3] was 5.35 ± 1.51 (-104 ± 6) %. Also, the “CYP2C19 Efficacy (in parenthesis)” value in [4] is given as 0.57 ± 0.25 (-152 ± 29) %. Moreover, the “CYP2D6 Efficacy (in parenthesis)” value in data set [5] is on record as 32.63 ± 15.32 (-79 ± 28) %. The “CYP3A4 Efficacy (in parenthesis)” value in data set [6] is on record as 1.31 ± 0.09 (52 ± 7) %. Moreover, in data set [6], the “CYP3A4 IC50 (half-maximal inhibitory concentration)” value is given as 1.31 ± 0.09 (52 ± 7) µM. The AC50 in data set [7] (CYP1A2 AC50 (half-maximal activity concentration)) stood at 0.99 µM; in data set [8] (CYP2C9 AC50 (half-maximal activity concentration)), 5.35 µM; in [9] (CYP2C19 AC50 (half-maximal activity concentration)), 0.57 µM; in data set [10] (CYP2D6 AC50 (half-maximal activity concentration)), 32.6 µM; in data set [11] (CYP3A4 AC50 (half-maximal activity concentration)), 1.31 µM.
On to `CC(C)(C)C(O)(CCc1ccc(Cl)cc1)Cn1cncn1` (stereo not shown) [Tebuconazole], for which the “Luciferase IC50 (half-maximal inhibitory concentration)” value in data set [1] is recorded as “Inactive”. In addition, the “CYP1A2 Efficacy (in parenthesis)” value in data set [2] is on record as 31.85 ± 3.66 (-77 ± 8) %. In addition, the “CYP2C9 Efficacy (in parenthesis)” value in data set [3] is 3.3 ± 0.22 (-104 ± 4) %. Moreover, the “CYP2C19 Efficacy (in parenthesis)” value in data set [4] is on record as 0.45 ± 0.0 (-115 ± 9) %. Further, in [5], the “CYP2D6 Efficacy (in parenthesis)” value was 34.28 ± 2.23 (-82 ± 7) %. In data set [6], the “CYP3A4 Efficacy (in parenthesis)” value is given as 0.21 ± 0.04 (-90 ± 1) %. The half-inhibitory concentration (IC50) in data set [7] was 31.9 µM; in data set [8] (setting [12]), 3.3 µM; in data set [9], 0.45 µM; in data set [10] (setting [13]), 34.3 µM; in data set [11], 0.21 µM.
